Measured values as given in article PMC12505967, “Inhibition of the assembly of Plasmodium Hsp70-1 and Hsp40 complex blocks DNA replication by destabilizing ribonucleotide reductase subunit-2” (mBio, 2025).

How the values were obtained:
PfHsp70-1 + PfYdj1 = biological target: T1, PfHsp70-1 + PfYdj1 (Plasmodium falciparum, UniProt Q8IB24); test: EnzChek phosphate ATPase assay; assay type: biochemical; conditions: inhibits PfYdj1-stimulated ATP hydrolysis; 1 and 20 µM compound (21 µM in figure legend); 50 µM ATP, 2 µM each protein, 2 mM MgCl2, pH 7.5, 37°C
T1 construct: gene PF3D7_0818900; both full length, N-terminal His6 tag (pET28a), E. coli, Ni-NTA; tags kept; with HSP40, subfamily A

PfHsp70-1 = biological target: T2, PfHsp70-1 (Plasmodium falciparum, UniProt Q8IB24); assay type: biochemical; conditions: basal ATPase without cochaperone; 50 µM ATP, 2 µM protein, 2 mM MgCl2, pH 7.5, 37°C
T2 construct: gene PF3D7_0818900; full length, N-terminal His6 tag (pET28a), E. coli Rosetta (DE3), Ni-NTA; tag kept

[1] = biological target: Recombinant PfHsp70-1 (His6-tagged, purified) (Plasmodium falciparum 3D7) (UniProt Q8IB24); conditions: scale: µM min^−1 per µM concentration of the enzyme

With CC1=C(C(=O)OCc2ccccc2)C(c2ccc(-c3ccccc3)cc2)NC(=O)N1CCCCCC(=O)O (stereo not drawn) [116-9e] the “EnzChek phosphate ATPase assay” value (PfHsp70-1 + PfYdj1) was “observed a reduced stimulation of PfYdj1-mediated ATP hydrolysis of PfHsp70-1 in a dose-dependent manner”.

In the case of Nc1ncnc2c1ncn2[C@@H]1O[C@H](COP(=O)(O)OP(=O)(O)OP(=O)(O)O)[C@@H](O)[C@H]1O [ATP], the “EnzChek phosphate ATPase assay” value (PfHsp70-1) is reported as “PfHsp70-1 showed a basal level of ATPase activity”.

B1: Recombinant PfSis1 (His6-tagged, purified) (natural protein)
chain: MGKDYYSILGVSRDCTTNDLKKAYRKLAMMWHPDKHNDEKSKKEAEEKFKNIAEAYDVLADEEKRKIYDTYGEEGLKGSIPTGGNTYVYSGVDPSELFSRIFGSDGQFSFTSTFDEDFSPFSTFVNMTSRKSRPSTTTNINTNNYNKPATYEVPLSLSLEELYSGCKKKLKITRKRFMGTKSYEDDNYVTIDVKAGWKDGTKITFYGEGDQLSPMAQPGDLVFKVKTKTHDRFLRDANHLIYKCPVPLDKALTGFQFIVKSLDNRDINVRVDDIVTPKSRKIVAKEGMPSSKYPSMKGDLIVEFDIVFPKSLTSEKKKIIRETLANTF
B1 gave a PfSis1-induced rate of ATP hydrolysis of PfHsp70-1 without and with 1 µM and 20 µM 116-9e (0.37 without, 0.322 at 1 µM, 0.087 at 20 µM) [1] of 0.37.
